In general, T/C refers to the ratio of treated to control.

Calls of active or inactive are those of the source. The calls are words filed in the database; no cut-off is given here.

Data on two molecules can be found in ChEMBL document CHEMBL4354883, “Design, Synthesis, and Biological Evaluation of HSP90 Inhibitor-SN38 Conjugates for Targeted Drug Accumulation” (J Med Chem, 2020).

For series [1], the target named is T1, Heat shock protein HSP90 (Homo sapiens, UniProt P07900+P08238). The experiment in a line: Inhibition of HSP90 in human HCT116 cells assessed as downregulation of AKT protein expression after 24 hrs by Western blot analysis. It counts as cell-based.
The target of series [2] is T2, DNA topoisomerase 1 (Homo sapiens) (UniProt P11387).
T2 sequence (whole entry): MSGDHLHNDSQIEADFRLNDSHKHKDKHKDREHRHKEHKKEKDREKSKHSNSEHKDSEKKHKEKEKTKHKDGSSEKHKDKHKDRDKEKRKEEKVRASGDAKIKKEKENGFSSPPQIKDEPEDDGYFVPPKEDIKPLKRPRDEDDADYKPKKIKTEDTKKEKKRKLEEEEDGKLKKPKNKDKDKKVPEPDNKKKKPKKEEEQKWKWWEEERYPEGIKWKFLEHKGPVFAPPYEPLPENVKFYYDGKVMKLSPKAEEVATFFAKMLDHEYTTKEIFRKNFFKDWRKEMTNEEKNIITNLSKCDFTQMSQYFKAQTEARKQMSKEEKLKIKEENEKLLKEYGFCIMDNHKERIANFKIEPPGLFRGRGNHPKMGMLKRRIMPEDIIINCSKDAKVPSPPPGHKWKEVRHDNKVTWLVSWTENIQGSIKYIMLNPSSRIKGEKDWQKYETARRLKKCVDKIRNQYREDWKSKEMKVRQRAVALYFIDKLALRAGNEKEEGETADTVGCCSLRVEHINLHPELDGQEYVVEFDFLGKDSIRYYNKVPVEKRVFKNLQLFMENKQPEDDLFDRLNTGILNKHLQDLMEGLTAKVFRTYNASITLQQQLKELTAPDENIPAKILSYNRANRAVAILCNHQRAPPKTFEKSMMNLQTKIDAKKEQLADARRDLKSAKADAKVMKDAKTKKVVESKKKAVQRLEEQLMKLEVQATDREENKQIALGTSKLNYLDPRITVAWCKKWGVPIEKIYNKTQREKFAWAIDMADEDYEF
The experiment in a line: Inhibition of topoisomerase 1 in human HCT116 cells assessed as increase in phosphorylated KAP1 expression at 0.2 to 5 uM after 24 hrs by Western blot analysis. It counts as cell-based.

The target of series [3] is T1, Heat shock protein HSP90. Nature of the series: Inhibition of HSP90 in human A549 cells assessed as upregulation of HSP70 expression at 0.2 to 5 uM after 24 hrs by Western blot analysis. It counts as cell-based. In general terms: A western blot detects proteins with antibodies after separation by electrophoresis.
The target of series [4] is T1, Heat shock protein HSP90. Nature of the series: Inhibition of HSP90 in human HCT116 cells assessed as upregulation of HSP70 expression at 0.2 to 5 uM after 24 hrs by Western blot analysis. It counts as cell-based.
A short description of series [5]: Prodrug release in tumor of mouse xenografted with human HCT116 cells assessed as increase in 7-ethyl-10-hydroxycamptothecin level by measuring retention time at 50 mg/kg, iv administered as single dose by LC-MS/MS analysis. It counts as ADME, organism-based, Neoplasm. The conditions noted are these: in vivo. On the technique in general: Xenograft models place foreign cells or tissue in a host animal.

Series [6] concerns CAPAN-1. The experiment in a line: Antitumor activity against human Capan1 cells xenografted in mouse assessed as increase in apoptosis of tumor cells by measuring increase in green fluorescence at 50 mg/kg, iv for every 2 days measured at 2 hrs post last dose by TUNEL assay. It counts as functional, organism-based.
The subject of series [7] is CAPAN-1. Nature of the series: Antitumor activity against human Capan1 cells xenografted in mouse assessed as tumor cells with nuclear lysis at 36 mg/kg, iv for every 2 days measured at 2 hrs post last dose by H and E staining based analysis. It counts as functional, organism-based.
Series [8] can be described thus: Toxicity in spleen of mouse xenografted with human Capan1 cells assessed as pathological changes at 50 mg/kg, iv for every 2 days measured at 2 hrs post last dose by H and E staining based analysis. It counts as organism-based. The following applies: in vivo.
Series [9] in a line: Prodrug release in tumor of mouse xenografted with human Capan1 cells assessed as increase in 7-ethyl-10-hydroxycamptothecin level at 50 mg/kg, iv after 72 hrs by LC-MS/MS analysis. It counts as ADME, organism-based, Neoplasm. The conditions noted are these: in vivo.
The nature of series [10]: Prodrug release in mouse plasma xenografted with human Capan1 cells assessed as increase in 7-ethyl-10-hydroxycamptothecin level at 50 mg/kg, iv after 30 mins to 72 hrs by LC-MS/MS analysis. It counts as ADME, organism-based. The conditions noted are these: in vivo.
Series [11] relates to Mus musculus. Nature of the series: In vivo inhibition of HSP90 in mouse xenografted with human Capan1 cells assessed as decrease in AKT protein expression at 50 mg/kg, iv for every 2 days measured at 2 hrs post last dose by Western blot analysis. It counts as functional, organism-based.
Series [12] in a line: Toxicity in liver of mouse xenografted with human Capan1 cells assessed as pathological changes at 50 mg/kg, iv for every 2 days measured at 2 hrs post last dose by H and E staining based analysis. It counts as organism-based. The following applies: in vivo.
Series [13] deals with CAPAN-1. Nature of the series: Antitumor activity against human Capan1 cells xenografted in mouse assessed as reduction in tumor volume at 50 mg/kg, iv for every 2 days and measured twice per week by microcaliper method relative to control. It counts as functional.
The target in series [14] is T1, Heat shock protein HSP90. The experiment in a line: Inhibition of HSP90 in human HCT116 cells assessed as downregulation of Akt expression at 0.008 to 1 uM after 24 hrs by Western blot analysis. It counts as cell-based.
Series [15] is described as follows: Toxicity in heart of mouse xenografted with human Capan1 cells assessed as pathological changes at 50 mg/kg, iv for every 2 days measured at 2 hrs post last dose by H and E staining based analysis. It counts as organism-based. The conditions noted are these: in vivo.
The test system of series [16] is Mus musculus. Nature of the series: In vivo inhibition of topoisomerase 1 in mouse xenografted with human Capan1 cells assessed as increase in phosphorylated KAP1 expression at 50 mg/kg, iv for every 2 days measured at 2 hrs post last dose by Western blot analysis. It counts as functional, organism-based.
For series [17], the system named is Mus musculus. The experiment in a line: In vivo inhibition of HSP90 in mouse xenografted with human Capan1 cells assessed as increase in HSP70 protein expression at 50 mg/kg, iv for every 2 days measured at 2 hrs post last dose by Western blot analysis. It counts as functional, organism-based.
Series [18] addresses T2, DNA topoisomerase 1 (Homo sapiens). Nature of the series: Inhibition of topoisomerase 1 in human HCT116 cells assessed as increase in phosphorylated KAP1 expression after 24 hrs by Western blot analysis. It counts as cell-based.
A short description of series [19]: Prodrug release in mouse plasma xenografted with human HCT116 cells assessed as increase in 7-ethyl-10-hydroxycamptothecin level at 50 mg/kg, iv administered as single dose and measured after 30 mins to 72 hrs by LC-MS/MS analysis. The conditions noted are these: in vivo. It counts as ADME, organism-based.
Series [20] in a line: Drug uptake in tumor of mouse xenografted with human Capan1 cells assessed as retention time of the compound at 50 mg/kg, iv by LC-MS/MS analysis. It counts as ADME, organism-based, Neoplasm. The conditions noted are these: in vivo.
The nature of series [21]: Prodrug release in human A549 cells assessed as increase in 7-ethyl-10-hydroxycamptothecin level at 5 uM after 1 to 12 hrs by LC-MS/MS analysis. The conditions noted are these: a549, 5 µM. It counts as ADME, cell-based.
Series [22] deals with T1, Heat shock protein HSP90. The experiment in a line: Inhibition of HSP90 in human HCT116 cells assessed as upregulation of HSP70 expression at 0.008 to 1 uM after 24 hrs by Western blot analysis. It counts as cell-based.
The test system of series [23] is CAPAN-1. Nature of the series: Antitumor activity against human Capan1 cells xenografted in mouse assessed as reduction in tumor weight at 50 mg/kg, iv for every 2 days and measured twice per week by caliper method. It counts as functional, organism-based.
The subject of series [24] is Mus musculus. Nature of the series: Down regulation of topoisomerase 1 expression in mouse xenografted with human Capan1 cells at 50 mg/kg, iv for every 2 days measured at 2 hrs post last dose by Western blot analysis. It counts as functional, organism-based.
The nature of series [25]: Prodrug release in human A549 cells assessed as increase in 7-ethyl-10-hydroxycamptothecin level at 5 uM after 12 hrs by LC-MS/MS analysis. It counts as ADME, cell-based. The conditions noted are these: a549, 12 h.

For the molecule `CCc1c2c(nc3ccc(OC(=O)N4CCC(NC(=O)c5noc(-c6cc(C(C)C)c(O)cc6O)c5-c5ccc(CN6CCOCC6)cc5)CC4)cc13)-c1cc3c(c(=O)n1C2)COC(=O)[C@]3(O)CC`, on Heat shock protein HSP90 [1], the inhibition entry is “Dose-dependent effect”. The inhibition result in series [2] is “inactive”. Besides, the inhibition result at Heat shock protein HSP90 [3] and at Heat shock protein HSP90 [4] was “Active” each time.

In the case of `CCc1c2c(nc3ccc(O)cc13)-c1cc3c(c(=O)n1C2)COC(=O)[C@@]3(CC)OC(=O)CNC(=O)c1noc(-c2cc(C(C)C)c(O)cc2O)c1-c1ccc(CN2CCOCC2)cc1`, the Retention_time in series [5] and in series [20] was 72 h in each case. Moreover, the result in the series on CAPAN-1 [6], in the series on CAPAN-1 [7] and in the series on CAPAN-1 [23] was Active. In addition, the Activity result in series [8] was “Toxic”; in series [12], “Non-Toxic”; in [15] it was “Non-Toxic”. In addition, the Drug metabolism result in [9], in series [10], in [19], in series [21] and in series [25] was “Metabolite_Detected” throughout. The inhibition result in the series on Mus musculus [11], in the series on Mus musculus [16], with Mus musculus [17] and with Mus musculus [24] was “Active” each time. Further, in the series with CAPAN-1 [13], the T/C is listed as 1.86%. Moreover, the inhibition entry on Heat shock protein HSP90 [14] and on Heat shock protein HSP90 [22] was “inactive” in each case. Further, the inhibition entry in series [18] is “Dose-dependent effect”.
